Calls of active or inactive are those of the source. No cut-off for these calls is given here.
Key:
[1] = molecular target: Casein kinase I (Homo sapiens) (UniProt Q9HCP0+P78368+P48730+P49674+P48729); assay: Inhibition of CK1 (unknown origin) assessed as residual activity at 10 uM; type: protein assay
HCT-116 = assay: Cell cycle arrest in human HCT116 cells assessed as up regulation of CyclinB1 expression up to 150 nM after 24 hrs by Western blot analysis; type: functional, cell-based
[2] = molecular target: Casein kinase I isoform gamma-1 (Homo sapiens) (UniProt Q9HCP0); assay: Inhibition of recombinant human CK1gamma1 (25 to 355 residues) assessed as residual activity at 10 uM using KRRRALS(p)VASLPGL as substrate measured after 40 mins in presence of [gamma33P]ATP by scintillation counting method
SW-620 [3] = assay: Induction of apoptosis in human SW620 cells assessed as necrotic cells at 100 nM measured after 48 hrs by Annexin V-FITC/propidium iodide staining-based flow cytometry (reference value: 2.71%); type: functional
[4] = molecular target: NT-3 growth factor receptor (Homo sapiens) (UniProt Q16288); assay: Inhibition of human TrkC (510 to end residues) using GEEPLYWSFPAKKK as substrate measured after 40 mins in presence of [gamma33P]ATP by scintillation counting method; design: scale not given: the % may be the effect or the level left
NT-3 growth factor receptor (Homo sapiens), sequence (Q16288 32-839 limits assumed): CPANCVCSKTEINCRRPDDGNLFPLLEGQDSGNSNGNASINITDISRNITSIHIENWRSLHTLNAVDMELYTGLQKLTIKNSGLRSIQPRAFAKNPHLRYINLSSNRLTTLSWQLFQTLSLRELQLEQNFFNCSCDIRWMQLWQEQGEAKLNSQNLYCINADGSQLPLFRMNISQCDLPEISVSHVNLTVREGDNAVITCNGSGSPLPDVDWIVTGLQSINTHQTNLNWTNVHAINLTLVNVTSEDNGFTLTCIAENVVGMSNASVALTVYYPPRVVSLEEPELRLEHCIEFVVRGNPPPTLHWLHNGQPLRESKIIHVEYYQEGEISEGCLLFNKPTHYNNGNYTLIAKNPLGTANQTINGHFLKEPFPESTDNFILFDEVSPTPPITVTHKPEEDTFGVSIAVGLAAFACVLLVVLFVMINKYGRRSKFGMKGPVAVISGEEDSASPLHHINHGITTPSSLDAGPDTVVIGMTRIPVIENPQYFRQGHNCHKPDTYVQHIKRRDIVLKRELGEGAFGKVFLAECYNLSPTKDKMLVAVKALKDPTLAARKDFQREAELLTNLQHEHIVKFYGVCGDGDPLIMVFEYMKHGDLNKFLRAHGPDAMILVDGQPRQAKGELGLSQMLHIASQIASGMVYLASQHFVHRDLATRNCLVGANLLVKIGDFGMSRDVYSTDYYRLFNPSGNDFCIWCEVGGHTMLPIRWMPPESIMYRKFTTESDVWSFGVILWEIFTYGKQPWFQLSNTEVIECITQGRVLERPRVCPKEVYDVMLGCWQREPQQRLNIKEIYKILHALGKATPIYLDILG

[5] = test system: SNF-related serine/threonine-protein kinase (Homo sapiens), Q9NRH2 [UNDEFINED MUTATION]; assay: Inhibition of human SNRK E97G/P116A mutant (65 to 409 residues) using KKLRRTLSFAEPG as substrate measured after 40 mins in presence of [gamma33P]ATP by scintillation counting method; design: scale not given: the % may be the effect or the level left
[6] = molecular target: Protein kinase C iota type (Homo sapiens) (UniProt P41743); assay: Inhibition of recombinant full-length human PKCiota assessed as residual activity at 10 uM using ERMRPRKRQGSVRRRV as substrate measured after 40 mins in presence of [gamma33P]ATP by scintillation counting method
[7] = molecular target: MAP kinase-activated protein kinase 3 (Homo sapiens) (UniProt Q16644); assay: Inhibition of recombinant human MAPKAPK3 (2 to end residues) assessed as residual activity at 10 uM using KKLNRTLSVA as substrate measured after 40 mins in presence of [gamma33P]ATP by scintillation counting method
MAP kinase-activated protein kinase 3 (Homo sapiens), sequence (Q16644 whole entry, looked up): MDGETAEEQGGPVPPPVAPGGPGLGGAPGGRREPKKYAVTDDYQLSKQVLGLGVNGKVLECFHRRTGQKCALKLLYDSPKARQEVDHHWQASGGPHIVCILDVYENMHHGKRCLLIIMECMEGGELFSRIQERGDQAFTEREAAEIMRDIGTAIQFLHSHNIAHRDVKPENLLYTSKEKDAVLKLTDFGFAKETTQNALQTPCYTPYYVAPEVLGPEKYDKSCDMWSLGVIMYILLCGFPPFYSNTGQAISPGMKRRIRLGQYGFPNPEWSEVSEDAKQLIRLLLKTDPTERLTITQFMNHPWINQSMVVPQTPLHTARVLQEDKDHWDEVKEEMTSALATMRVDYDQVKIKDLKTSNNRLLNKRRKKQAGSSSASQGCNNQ

[8] = molecular target: Dual specificity protein kinase CLK3 (Homo sapiens) (UniProt P49761); assay: Inhibition of recombinant full-length human CLK3 assessed as residual activity at 10 uM using ERMRPRKRQGSVRRRV as substrate measured after 40 mins in presence of [gamma33P]ATP by scintillation counting method
Dual specificity protein kinase CLK3 (Homo sapiens), sequence (P49761 whole entry, looked up): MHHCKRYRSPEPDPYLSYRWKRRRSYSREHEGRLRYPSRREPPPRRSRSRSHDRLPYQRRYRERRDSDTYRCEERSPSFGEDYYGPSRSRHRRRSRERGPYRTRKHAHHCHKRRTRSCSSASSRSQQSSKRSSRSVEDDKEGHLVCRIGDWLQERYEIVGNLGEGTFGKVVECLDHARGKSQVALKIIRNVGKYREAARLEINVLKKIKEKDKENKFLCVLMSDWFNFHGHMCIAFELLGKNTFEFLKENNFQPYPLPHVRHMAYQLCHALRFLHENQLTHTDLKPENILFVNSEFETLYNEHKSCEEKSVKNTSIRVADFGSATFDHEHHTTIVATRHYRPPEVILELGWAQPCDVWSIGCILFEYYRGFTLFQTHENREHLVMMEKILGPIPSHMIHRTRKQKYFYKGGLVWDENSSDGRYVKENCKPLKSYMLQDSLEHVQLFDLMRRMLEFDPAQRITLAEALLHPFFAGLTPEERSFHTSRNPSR

[9] = molecular target: Serine/threonine-protein kinase ULK3 (Homo sapiens) (UniProt Q6PHR2); assay: Inhibition of recombinant full-length human ULK3 assessed as residual activity at 10 uM using casein as substrate measured after 40 mins in presence of [gamma33P]ATP by scintillation counting method
Serine/threonine-protein kinase ULK3 (Homo sapiens), sequence (Q6PHR2 whole entry, the tested form may be a part): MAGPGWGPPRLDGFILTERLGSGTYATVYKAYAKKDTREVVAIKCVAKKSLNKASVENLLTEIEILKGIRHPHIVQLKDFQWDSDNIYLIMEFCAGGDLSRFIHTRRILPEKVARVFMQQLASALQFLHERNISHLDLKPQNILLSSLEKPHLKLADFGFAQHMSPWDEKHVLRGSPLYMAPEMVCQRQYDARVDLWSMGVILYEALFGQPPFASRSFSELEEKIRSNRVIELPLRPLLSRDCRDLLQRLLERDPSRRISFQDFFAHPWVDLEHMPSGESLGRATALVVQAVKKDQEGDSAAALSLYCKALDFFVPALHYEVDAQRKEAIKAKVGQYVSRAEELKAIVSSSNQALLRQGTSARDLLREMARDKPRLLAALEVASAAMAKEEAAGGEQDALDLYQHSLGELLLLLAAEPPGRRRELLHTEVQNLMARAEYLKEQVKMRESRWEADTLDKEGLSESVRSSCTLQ

[10] = molecular target: Insulin receptor-related protein (Homo sapiens) (UniProt P14616); assay: Inhibition of recombinant human IRR (943 to 1266 residues) assessed as residual activity at 10 uM using myelin basic protein as substrate measured after 40 mins in presence of [gamma33P]ATP by scintillation counting method
[11] = test system: Calcium/calmodulin-dependent protein kinase kinase 2 (Homo sapiens), Q96RR4 [T85S]; assay: Inhibition of recombinant full-length human CAMKk2 T85S mutant assessed as residual activity at 10 uM using calmodulin as substrate measured after 40 mins in presence of [gamma33P]ATP by scintillation counting method
Calcium/calmodulin-dependent protein kinase kinase 2 (Homo sapiens), Q96RR4 [T85S], sequence (Q96RR4 whole entry T85S): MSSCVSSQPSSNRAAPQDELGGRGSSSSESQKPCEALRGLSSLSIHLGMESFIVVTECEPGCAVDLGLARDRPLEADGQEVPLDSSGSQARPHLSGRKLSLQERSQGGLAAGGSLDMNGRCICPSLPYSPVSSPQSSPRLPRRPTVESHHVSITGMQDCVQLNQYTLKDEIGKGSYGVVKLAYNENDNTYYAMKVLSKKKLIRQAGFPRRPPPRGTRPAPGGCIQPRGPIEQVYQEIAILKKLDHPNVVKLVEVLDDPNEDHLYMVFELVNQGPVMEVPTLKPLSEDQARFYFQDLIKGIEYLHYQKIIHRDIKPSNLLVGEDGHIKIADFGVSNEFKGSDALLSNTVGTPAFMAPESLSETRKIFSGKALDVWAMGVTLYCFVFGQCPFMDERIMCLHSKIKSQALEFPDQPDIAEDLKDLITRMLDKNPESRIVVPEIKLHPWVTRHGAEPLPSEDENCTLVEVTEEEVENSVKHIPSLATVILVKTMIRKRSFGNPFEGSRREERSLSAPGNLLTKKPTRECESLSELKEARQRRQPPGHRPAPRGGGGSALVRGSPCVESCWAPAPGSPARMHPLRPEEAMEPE

[12] = molecular target: Mitogen-activated protein kinase 12 (Homo sapiens) (UniProt P53778); assay: Inhibition of recombinant full-length human SAPK3 assessed as residual activity at 10 uM using myelin basic protein as substrate measured after 40 mins in presence of [gamma33P]ATP by scintillation counting method
[13] = molecular target: CDK12/Cyclin K (Homo sapiens) (UniProt O75909+Q9NYV4); assay: Inhibition of recombinant full length human CDK12/cyclinK assessed as residual activity at 10 uM using RSRSRSRSRSRSRSR as substrate measured after 120 mins in presence of [gamma33P]ATP by scintillation counting method; type: protein-complex assay
[14] = molecular target: Casein kinase I isoform gamma-2 (Homo sapiens) (UniProt P78368); assay: Inhibition of recombinant human CK1gamma2 (18 to end residues) assessed as residual activity at 10 uM using KRRRALS(p)VASLPGL as substrate measured after 40 mins in presence of [gamma33P]ATP by scintillation counting method
Casein kinase I isoform gamma-2 (Homo sapiens), sequence (P78368 whole entry, looked up, canonical isoform): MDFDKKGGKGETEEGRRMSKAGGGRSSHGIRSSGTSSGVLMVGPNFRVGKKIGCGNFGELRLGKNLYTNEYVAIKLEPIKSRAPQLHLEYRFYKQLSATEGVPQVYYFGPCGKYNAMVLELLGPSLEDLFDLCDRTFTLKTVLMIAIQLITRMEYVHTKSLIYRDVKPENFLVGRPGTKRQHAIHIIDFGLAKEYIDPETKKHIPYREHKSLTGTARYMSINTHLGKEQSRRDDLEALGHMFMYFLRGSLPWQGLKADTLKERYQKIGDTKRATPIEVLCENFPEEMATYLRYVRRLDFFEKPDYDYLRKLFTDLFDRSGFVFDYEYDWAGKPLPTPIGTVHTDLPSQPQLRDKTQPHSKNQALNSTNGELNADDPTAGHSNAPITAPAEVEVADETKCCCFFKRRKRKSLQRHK

[15] = molecular target: Serine/threonine-protein kinase NLK (Homo sapiens) (UniProt Q9UBE8); assay: Inhibition of recombinant human NLK (121 to end residues) assessed as residual activity at 10 uM using myelin basic protein as substrate measured after 40 mins in presence of [gamma33P]ATP by scintillation counting method
SW-620 [16] = assay: Induction of apoptosis in human SW620 cells assessed as early apoptotic cells at 50 nM measured after 48 hrs by Annexin V-FITC/propidium iodide staining-based flow cytometry (reference value: 0.773%); type: functional
DLD-1 = assay: Antiproliferative activity against human DLD1 cells assessed as reduction in cell viability after 72 hrs by MTT assay; type: functional, cell-based; conditions: DLD-1, 72 h
[17] = test system: Hepatocyte growth factor receptor (Homo sapiens), P08581 [Y1230C]; assay: Inhibition of recombinant human MET A1209G/V1290L/Y1248C mutant (974 to end residues) assessed as residual activity at 10 uM using KKKGQEEEYVFIE as substrate measured after 40 mins in presence of [gamma33P]ATP by scintillation counting method
[18] = molecular target: Tyrosine-protein kinase Fyn (Homo sapiens) (UniProt P06241); assay: Inhibition of recombinant full-length human FYN assessed as residual activity at 10 uM using Cdc2 peptide as substrate measured after 40 mins in presence of [gamma33P]ATP by scintillation counting method
[19] = molecular target: Fibroblast growth factor receptor 2 (Homo sapiens) (UniProt P21802); assay: Inhibition of recombinant human FGFR2 (456 to 770 residues) assessed as residual activity at 10 uM using poly(Glu, Tyr) 4:1 as substrate measured after 40 mins in presence of [gamma33P]ATP by scintillation counting method
[20] = molecular target: Vascular endothelial growth factor receptor 2 (Homo sapiens) (UniProt P35968); assay: Inhibition of recombinant human KDR (790 to end residues) assessed as residual activity at 10 uM using myelin basic protein substrate measured after 40 mins in presence of [gamma33P]ATP by scintillation counting method
Vascular endothelial growth factor receptor 2 (Homo sapiens), sequence (P35968 whole entry): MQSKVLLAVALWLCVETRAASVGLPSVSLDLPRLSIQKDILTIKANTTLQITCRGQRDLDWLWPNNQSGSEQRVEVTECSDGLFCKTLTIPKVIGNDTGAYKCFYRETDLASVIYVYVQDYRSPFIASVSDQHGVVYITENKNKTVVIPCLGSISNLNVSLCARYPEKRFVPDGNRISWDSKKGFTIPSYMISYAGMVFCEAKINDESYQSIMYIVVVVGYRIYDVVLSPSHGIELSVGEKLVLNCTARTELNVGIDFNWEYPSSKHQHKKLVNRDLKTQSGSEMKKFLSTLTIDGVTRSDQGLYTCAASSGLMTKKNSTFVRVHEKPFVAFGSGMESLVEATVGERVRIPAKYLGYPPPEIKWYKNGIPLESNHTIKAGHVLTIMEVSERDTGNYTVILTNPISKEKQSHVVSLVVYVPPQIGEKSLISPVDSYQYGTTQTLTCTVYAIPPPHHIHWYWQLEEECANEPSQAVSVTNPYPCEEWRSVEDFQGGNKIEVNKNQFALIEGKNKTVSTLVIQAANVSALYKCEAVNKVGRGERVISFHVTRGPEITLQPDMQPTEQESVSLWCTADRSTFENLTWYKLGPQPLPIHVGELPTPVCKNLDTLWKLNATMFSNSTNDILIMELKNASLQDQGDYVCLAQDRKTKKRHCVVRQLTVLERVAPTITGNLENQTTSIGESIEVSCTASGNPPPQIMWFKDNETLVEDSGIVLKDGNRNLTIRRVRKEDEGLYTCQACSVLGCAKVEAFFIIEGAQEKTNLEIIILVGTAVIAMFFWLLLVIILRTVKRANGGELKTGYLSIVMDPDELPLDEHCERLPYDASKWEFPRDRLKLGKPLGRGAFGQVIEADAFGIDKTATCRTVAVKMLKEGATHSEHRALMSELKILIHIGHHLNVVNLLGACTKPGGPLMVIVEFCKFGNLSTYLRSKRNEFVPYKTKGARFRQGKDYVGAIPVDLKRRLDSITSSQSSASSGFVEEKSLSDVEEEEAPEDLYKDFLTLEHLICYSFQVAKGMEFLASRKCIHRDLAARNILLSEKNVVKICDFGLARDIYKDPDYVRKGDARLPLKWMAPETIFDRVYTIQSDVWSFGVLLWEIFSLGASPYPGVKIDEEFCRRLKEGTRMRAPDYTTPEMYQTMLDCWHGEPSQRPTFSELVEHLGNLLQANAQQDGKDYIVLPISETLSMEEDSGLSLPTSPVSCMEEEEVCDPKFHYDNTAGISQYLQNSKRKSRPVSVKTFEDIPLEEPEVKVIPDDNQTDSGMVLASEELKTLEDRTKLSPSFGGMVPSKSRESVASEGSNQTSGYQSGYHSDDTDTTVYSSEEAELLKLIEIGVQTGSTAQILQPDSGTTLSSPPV

[21] = molecular target: Calcium/calmodulin-dependent protein kinase type IV (Homo sapiens) (UniProt Q16566); assay: Inhibition of recombinant full-length human CaMK4 assessed as residual activity at 10 uM using calmodulin as substrate measured after 40 mins in presence of [gamma33P]ATP by scintillation counting method
Calcium/calmodulin-dependent protein kinase type IV (Homo sapiens), sequence (Q16566 whole entry): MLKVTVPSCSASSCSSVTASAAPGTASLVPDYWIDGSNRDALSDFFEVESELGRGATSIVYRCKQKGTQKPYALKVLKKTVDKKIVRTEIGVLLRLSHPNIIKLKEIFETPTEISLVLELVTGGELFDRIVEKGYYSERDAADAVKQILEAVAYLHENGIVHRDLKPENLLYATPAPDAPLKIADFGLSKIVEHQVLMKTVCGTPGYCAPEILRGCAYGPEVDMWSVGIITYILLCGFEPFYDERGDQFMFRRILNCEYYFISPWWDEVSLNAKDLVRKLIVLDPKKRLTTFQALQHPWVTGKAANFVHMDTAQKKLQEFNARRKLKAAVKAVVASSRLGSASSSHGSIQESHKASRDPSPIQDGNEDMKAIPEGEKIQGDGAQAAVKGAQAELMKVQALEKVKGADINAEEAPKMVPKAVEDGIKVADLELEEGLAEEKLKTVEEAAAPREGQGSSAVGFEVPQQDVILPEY

Mus musculus = species on record: Mus musculus; assay: Inhibition of recombinant full-length mouse PI3K p110beta/p85alpha R123L mutant assessed as residual activity at 10 uM using phosphatidylinositol-4, 5-bisphosphate as substrate measured after 40 mins by HTRF assay

Cc1cc(C)c(CNc2nc(Cl)nc3c2ncn3C2CCCC2)c(=O)[nH]1
Activity [1]: 106%
Activity (HCT-116): Active
Activity [2]: 94.5%
Activity (SW-620 [3]): 6.55%
Activity [4]: 110%
Activity [5]: 111%
Activity [6]: 105%
Activity [7]: 106%
Activity [8]: 116%
Activity [9]: 102%
Activity [10]: 102%
Activity [11]: 99.5%
Activity [12]: 96.5%
Activity [13]: 104%
Activity [14]: 104%
Activity [15]: 93.5%
Activity (SW-620 [16]): 1.01%
IC50 (DLD-1): 136 nM
Activity [17]: 110%
Activity [18]: 98%
Activity [19]: 106%
Activity [20]: 107%
Activity [21]: 121%
Activity (Mus musculus): 104%

From ChEMBL document CHEMBL4311992, “Discovery of 3-(((9H-purin-6-yl)amino)methyl)-4,6-dimethylpyridin-2(1H)-one derivatives as novel tubulin polymerization inhibitors for treatment of cancer” (Eur J Med Chem, 2019)
